Where two headings read alike, the source gives them in different places.
Columns and labels:
S6K1 = S6K1 (Homo sapiens, UniProt P23443, T412E); test: IC50 determination, biochemical kinase assay; details: for IC50: not in the presence of VHL
Method: (§1) IC50 determination was performed at the MRC PPU International Centre for Protein Kinase Profiling, according to the protocol previously described[47],[48]

SGK3 = target: T1, SGK3 (Homo sapiens, UniProt Q96BR1); test: IC50 determination, biochemical kinase assay; details: not in the presence of VHL
T1 sequence (Q96BR1 1-496): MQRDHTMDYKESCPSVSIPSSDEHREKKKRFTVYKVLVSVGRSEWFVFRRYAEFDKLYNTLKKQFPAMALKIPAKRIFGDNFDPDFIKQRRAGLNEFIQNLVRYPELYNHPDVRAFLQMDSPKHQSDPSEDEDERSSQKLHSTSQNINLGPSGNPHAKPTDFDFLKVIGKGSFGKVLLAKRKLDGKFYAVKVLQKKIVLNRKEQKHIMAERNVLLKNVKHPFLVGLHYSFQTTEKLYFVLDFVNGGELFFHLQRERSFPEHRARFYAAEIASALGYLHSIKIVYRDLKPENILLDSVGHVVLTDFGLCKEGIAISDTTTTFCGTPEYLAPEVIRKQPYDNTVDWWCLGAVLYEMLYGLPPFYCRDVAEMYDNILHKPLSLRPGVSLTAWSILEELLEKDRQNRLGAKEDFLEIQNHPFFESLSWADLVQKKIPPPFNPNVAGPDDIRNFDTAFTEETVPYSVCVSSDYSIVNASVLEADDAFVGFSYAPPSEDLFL
Method: as §1

BTK = BTK (Homo sapiens, UniProt Q06187); test: kinase profiling panel; assay type: biochemical; details: read-out: % Activity Remaining
BTK, sequence (Q06187 whole entry): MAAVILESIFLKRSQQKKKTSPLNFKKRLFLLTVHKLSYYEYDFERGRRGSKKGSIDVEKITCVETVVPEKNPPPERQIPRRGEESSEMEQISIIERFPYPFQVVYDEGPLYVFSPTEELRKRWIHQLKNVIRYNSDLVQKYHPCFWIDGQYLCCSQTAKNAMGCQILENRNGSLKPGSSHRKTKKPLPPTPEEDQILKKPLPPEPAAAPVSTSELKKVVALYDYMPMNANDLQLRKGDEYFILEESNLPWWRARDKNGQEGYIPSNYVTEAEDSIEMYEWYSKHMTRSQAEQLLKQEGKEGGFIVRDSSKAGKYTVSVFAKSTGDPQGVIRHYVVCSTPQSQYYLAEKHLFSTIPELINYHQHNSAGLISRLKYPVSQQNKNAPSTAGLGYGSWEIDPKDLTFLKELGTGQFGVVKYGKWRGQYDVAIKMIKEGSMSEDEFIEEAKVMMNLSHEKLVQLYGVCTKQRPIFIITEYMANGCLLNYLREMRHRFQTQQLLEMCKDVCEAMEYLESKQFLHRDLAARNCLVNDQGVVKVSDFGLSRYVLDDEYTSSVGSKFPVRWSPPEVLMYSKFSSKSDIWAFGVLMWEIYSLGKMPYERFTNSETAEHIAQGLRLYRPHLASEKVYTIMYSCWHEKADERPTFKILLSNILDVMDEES
Description: (§2) Protein kinase profiling against a Dundee panel of 140 protein kinases was undertaken at the International Centre for Protein Kinase Profiling. The result for each kinase was presented as a mean kinase activity of the reaction taken in triplicate relative to a control sample treated with DMSO. Assay conditions and abbreviations are available at http://www.kinase-screen.mrc.ac.uk.

DYRK1A = DYRK1A (Homo sapiens, UniProt Q13627); test: kinase profiling panel; assay type: biochemical; details: read-out: % Activity Remaining
Description: as §2

PKD1 = target: T2, PKD1 (Homo sapiens, UniProt Q15139); test: kinase profiling panel; assay type: biochemical; details: read-out: % Activity Remaining
T2 sequence (Q15139 1-912): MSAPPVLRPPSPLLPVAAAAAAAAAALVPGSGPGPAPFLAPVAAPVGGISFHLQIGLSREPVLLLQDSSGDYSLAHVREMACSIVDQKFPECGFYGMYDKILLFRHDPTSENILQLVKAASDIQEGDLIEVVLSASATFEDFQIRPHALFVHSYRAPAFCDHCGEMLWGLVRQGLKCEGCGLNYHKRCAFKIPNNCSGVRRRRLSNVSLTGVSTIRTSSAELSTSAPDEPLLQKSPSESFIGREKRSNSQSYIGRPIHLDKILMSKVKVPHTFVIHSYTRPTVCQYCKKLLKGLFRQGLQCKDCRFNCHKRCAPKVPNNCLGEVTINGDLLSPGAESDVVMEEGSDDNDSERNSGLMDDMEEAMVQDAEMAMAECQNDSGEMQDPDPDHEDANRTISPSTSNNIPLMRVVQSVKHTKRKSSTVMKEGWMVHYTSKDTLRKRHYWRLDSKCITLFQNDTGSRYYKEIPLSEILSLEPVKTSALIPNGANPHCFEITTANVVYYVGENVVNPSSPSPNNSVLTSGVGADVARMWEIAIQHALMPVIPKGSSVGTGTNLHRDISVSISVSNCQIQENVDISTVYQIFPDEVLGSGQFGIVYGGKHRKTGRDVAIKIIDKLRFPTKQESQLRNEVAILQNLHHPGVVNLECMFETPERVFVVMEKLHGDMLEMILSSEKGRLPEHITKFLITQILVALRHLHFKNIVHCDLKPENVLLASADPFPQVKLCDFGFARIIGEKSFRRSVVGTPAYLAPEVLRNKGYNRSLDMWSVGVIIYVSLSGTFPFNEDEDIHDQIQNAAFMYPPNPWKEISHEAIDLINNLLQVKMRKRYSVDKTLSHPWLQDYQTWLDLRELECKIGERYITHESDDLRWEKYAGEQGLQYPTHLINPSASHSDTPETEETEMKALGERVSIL
Description: as §2

[1] = tested on: phosphorylation of NDRG1 at Thr346; test: NDRG1 phosphorylation in HEK293 cells, immunoblot; assay type: cell-based; details: HEK293, 8 h; for pNDRG1 phosphorylation: basal, no inhibition of Akt
Method: Figure 3 Characterization of cellular activities of SGK3-PROTAC1 and cisSGK3-PROTAC1. (A) HEK293 cells were first treated for 8 h with 0.03–3 μM SGK3-PROTAC1 and cisSGK3-PROTAC1. One hour before lysis, cells were treated with 3 μM AZD5363. Lysates were subjected to immunoblot analysis with the indicated antibodies. […] Lysates were subjected to immunoblot analysis with the indicated antibodies. (C) HEK293 cells were treated for up to 48 h with SGK3-PROTAC1 (0.3 μM), and lysates were analyzed by immunoblot analysis using the indicated antibodies. (D) HEK293 cells were treated for 24 h with SGK3-PROTAC1. Cells were washed three times with DMEM to wash out the compound, and recovery of SGK3 expression protein was analyzed by immunoblot analysis. (E–G) As in A except that CAMA-1 (E), ZR-75-1 (F), and JIMT-1 (G) cells were employed rather than HEK293 cells.
To study the impact of SGK3-PROTAC1 on phosphorylation of a physiological substrate, we monitored phosphorylation of NDRG1 at Thr346.[37] This site is also phosphorylated by Akt; therefore we treated cells with increasing doses of SGK3-PROTAC1 and cisSGK3-PROTAC1 for 8 h, with the addition of an Akt inhibitor (3 μM AZD5363) 1 h before lysis, to remove the impact of Akt phosphorylation of NDRG1. […] Concentrations of cisSGK3-PROTAC1 of above 1 μM were required to lower NDRG1 phosphorylation. […] This is consistent with previous work in HEK293 cells showing that inhibition of both Akt and SGK3 is required to block NDRG1 phosphorylation.[8],[37]
All cell treatments were carried out as described in figure legends, to a final DMSO concentration of 0.1% (v/v). Lysates were quantified. Immunoblotting was performed using standard procedures, described in brief below. Lysate concentration was quantified by Bradford Assay, and 10 μg of lysate was loaded in the LDS sample buffer for SDS-PAGE electrophoresis on Novex 4–12% Bis–Tris gels. Proteins were electrophoretically transferred onto nitrocellulose membranes (Amersham Protran 0.45 μm NC; GE Healthcare) at 80 V for 80 min on ice in transfer buffer. Transferred membranes were blocked with 5% (w/v) nonfat dry milk dissolved in TBS-T [20 mM Tris/HCl, pH 7.5, 150 mM NaCl, and 0.1% (v/v) Tween 20] at RT for 30 min, before incubation with the primary antibody overnight at 4 °C. The signal was produced with near-infrared secondary antibodies and detected using a Licor Biosciences Odyssey System, and the signal was quantified in Image Studio Lite.

[2] = 0.3 μM SGK3-PROTAC1, 1 μM 14H, 1 μM 308-R
[3] = in the presence of 3 μM AZD5363, 0.3 μM SGK3-PROTAC1, 1 μM 14H, 1 μM 308-R
[4] = 0.1 μM, 3 μM AZD5363 1 h before lysis

S6K1, sequence (P23443 1-421 T412E limits assumed): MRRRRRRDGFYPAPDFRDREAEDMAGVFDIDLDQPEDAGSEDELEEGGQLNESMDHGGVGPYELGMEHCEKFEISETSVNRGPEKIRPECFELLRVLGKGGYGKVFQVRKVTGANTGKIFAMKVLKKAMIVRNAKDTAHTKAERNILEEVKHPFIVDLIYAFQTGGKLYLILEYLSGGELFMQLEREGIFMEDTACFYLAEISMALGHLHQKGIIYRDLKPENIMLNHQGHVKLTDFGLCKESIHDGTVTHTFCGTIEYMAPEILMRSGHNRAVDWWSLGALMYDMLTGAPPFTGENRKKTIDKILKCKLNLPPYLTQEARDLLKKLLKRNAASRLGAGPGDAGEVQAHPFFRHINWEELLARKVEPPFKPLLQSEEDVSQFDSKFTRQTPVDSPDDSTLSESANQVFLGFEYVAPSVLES

With `COc1ccc(Cl)c(S(=O)(=O)Nc2ccc(-c3nc(OC[C@H]4CNCCO4)c4c(C)n[nH]c4n3)cc2)c1` [290-R, reference compound] the IC50 (S6K1) was 10 nM, the IC50 (SGK3) was 35 nM and the remaining activity at 1 µM (BTK) was 91%. The remaining activity at 1 µM (DYRK1A) was 103% and the remaining activity at 1 µM (PKD1) was 15%.
For `Cc1ccc(F)c(S(=O)(=O)Nc2ccc(-c3nc(OC[C@H]4CNCCO4)c4cn[nH]c4n3)cc2)c1` [308-R, reference compound], the pNDRG1 phosphorylation [1, 2] was “minimal effect”, the NDRG1 phosphorylation [1, 3] was “markedly suppressed” and the IC50 (S6K1) was 1 nM. It also gave an IC50 (SGK3) of 5 nM, a remaining activity at 1 µM (BTK) of 59% and a remaining activity at 1 µM (DYRK1A) of 81%. For the same compound, the remaining activity at 1 µM (PKD1) was 37%.
For `Cc1ccc(F)c(S(=O)(=O)Nc2ccc(-c3nc(OC[C@H]4CN(CCOCCOCCOCC(=O)N[C@H](C(=O)N5C[C@H](O)C[C@H]5C(=O)NCc5ccc(-c6scnc6C)cc5)C(C)(C)C)CCO4)c4cn[nH]c4n3)cc2)c1` [DAT1], the IC50 (S6K1) was 160 nM and the IC50 (SGK3) was 440 nM.
`Cc1ccc(F)c(S(=O)(=O)Nc2ccc(-c3nc(OC[C@H]4CN(CCOCCOCC(=O)N[C@H](C(=O)N5C[C@H](O)C[C@H]5C(=O)NCc5ccc(-c6scnc6C)cc5)C(C)(C)C)CCO4)c4cn[nH]c4n3)cc2)c1` [DAT5] was tested, and the IC50 (S6K1) was > 10000 nM and the IC50 (SGK3) was > 10000 nM.
In the case of `Cc1ccc(F)c(S(=O)(=O)Nc2ccc(-c3nc(OC[C@H]4CN(CCOCCOCCOCCOCC(=O)N[C@H](C(=O)N5C[C@H](O)C[C@H]5C(=O)NCc5ccc(-c6scnc6C)cc5)C(C)(C)C)CCO4)c4cn[nH]c4n3)cc2)c1` [DAT6], the IC50 (S6K1) is reported as > 10000 nM and the IC50 (SGK3) is reported as > 10000 nM.
For `Cc1ccc(F)c(S(=O)(=O)Nc2ccc(-c3nc(OC[C@H]4CN(CCOCCOCCOCCOCCOCC(=O)N[C@H](C(=O)N5C[C@H](O)C[C@H]5C(=O)NCc5ccc(-c6scnc6C)cc5)C(C)(C)C)CCO4)c4cn[nH]c4n3)cc2)c1` [DAT7], the IC50 (S6K1) was > 10000 nM and the IC50 (SGK3) was > 10000 nM.
In the case of `Cc1ccc(F)c(S(=O)(=O)Nc2ccc(-c3nc(OC[C@H]4CN(CCCCCCOCCCCCCOCC(=O)N[C@H](C(=O)N5C[C@H](O)C[C@H]5C(=O)NCc5ccc(-c6scnc6C)cc5)C(C)(C)C)CCO4)c4cn[nH]c4n3)cc2)c1` [DAT10], the IC50 (S6K1) is reported as > 10000 nM and the IC50 (SGK3) is reported as > 10000 nM.
Work on `COc1ccc(Cl)c(S(=O)(=O)Nc2ccc(-c3nc(OC[C@H]4CN(CCCCCCOCCOCCOCCOCC(=O)N[C@H](C(=O)N5C[C@H](O)C[C@H]5C(=O)NCc5ccc(-c6scnc6C)cc5)C(C)(C)C)CCO4)c4c(C)n[nH]c4n3)cc2)c1` [DAT11] yielded an IC50 (S6K1) of 1800 nM and an IC50 (SGK3) of 730 nM.
`Cc1ccc(F)c(S(=O)(=O)Nc2ccc(-c3nc(OC[C@H]4CN(CCCCCCOCCOCCOCC(=O)N[C@H](C(=O)N5C[C@H](O)C[C@H]5C(=O)NCc5ccc(-c6scnc6C)cc5)C(C)(C)C)CCO4)c4cn[nH]c4n3)cc2)c1` [SGK3-PROTAC1] was tested, and the NDRG1 phosphorylation [1, 4] was “reduced NDRG1 phosphorylation”, the pNDRG1 phosphorylation [1, 2] was “minimal effect” and the NDRG1 phosphorylation [1, 3] was “markedly suppressed”. For the same compound, the “increase of IC50 against S6K1 relative to DAT1” value (S6K1; 0.16 μM to 1.8 μM) was “approximately 10 fold”, the IC50 (S6K1) was 1800 nM and the remaining activity at 1 µM (BTK; 1 µM) was 97%. The remaining activity at 1 µM (DYRK1A; 1 µM) was 105% and the remaining activity at 1 µM (PKD1; 1 µM) was 94%.
In the case of `Cc1ccc(F)c(S(=O)(=O)Nc2ccc(-c3nc(OC[C@H]4CN(CCCCCCOCCOCCOCC(=O)N[C@H](C(=O)N5C[C@@H](O)C[C@H]5C(=O)NCc5ccc(-c6scnc6C)cc5)C(C)(C)C)CCO4)c4cn[nH]c4n3)cc2)c1` [cisSGK3-PROTAC1], the NDRG1 phosphorylation [1, 4] is reported as “no effect”, the “concentration required to lower NDRG1 phosphorylation” value ([1]; 3 μM AZD5363 1 h before lysis) is reported as “above 1 μM” and the IC50 (S6K1) is reported as 1700 nM. For the same compound, the remaining activity at 1 µM (BTK; 1 µM) was 91%, the remaining activity at 1 µM (DYRK1A; 1 µM) was 99% and the remaining activity at 1 µM (PKD1; 1 µM) was 92%.
